Laboratory results reported in PMC9490236, “Accurate de novo design of membrane-traversing macrocycles” (Cell, 2022).
Read-outs that look alike come from different tables or passages of the source. Where a SMILES comes first, the peptide text is derived from it. [ ]: non-standard residue; d: D form. NMeF = CN[C@@H](Cc1ccccc1)C(=O)O; NMeL = CN[C@@H](CC(C)C)C(=O)O; dNMeL = CN[C@H](CC(C)C)C(=O)O; NMeV = CN[C@H](C(=O)O)C(C)C; dNMeA = CN[C@H](C)C(=O)O; Aib = CC(C)(N)C(=O)O

Key:
[1] = Caco-2 permeability assay (apical to basolateral); type: in vitro ADME, human; parameters: Caco_R1 / Caco_R3: unit not given here
Description: (§1) Human colon adenocarcinoma-derived Caco-2 cell line was used as a model system to investigate the intestinal epithelial permeability of our designs. Caco-2 cells were propagated in T125 flasks (Corning, Merck) using Dulbecco’s modified Eagle medium supplemented with 10% (v/v) fetal bovine serum, 1% (v/v) nonessential amino acids, and 1% (v/v) penicillin-streptomycin (Gibco, Thermo Fisher Scientific) at 37°C in an atmosphere of 5% CO2. Cells were subcultured when they reached 80% confluence.
(§2) The permeability of designed peptides was evaluated using an accelerated 6-day Caco-2 permeability assay as described previously ([Sevin et al., 2013]). In brief, cells were seeded into the 12-well Transwell plates with 0.4 μm polyester membrane inserts (Corning, Merck) to give 4.0 × 10^5 cells/well. The complete assay medium contained Dulbecco’s modified Eagle medium supplemented with 10% (v/v) fetal bovine serum, 1% (v/v) nonessential amino acids, and 0.4 μg/mL puromycin. The medium in plates was renewed every second day. The inserts received 0.75 mL of assay medium in the upper compartment (apical chamber) and 1.5 mL in the bottom compartment (basolateral chamber) individually. After 6-day incubation or until the cells formed monolayers, the medium in the apical and basolateral chamber was replaced with peptide solutions at 50 μM or Hanks' Balanced Salt Solution (HBSS), separately. The plates were incubated for 90 min at 37°C on an orbital shaker (60 rpm). The peptide concentration of solutions in the apical and basolateral compartments was subsequently quantified using LC-MS (Qstar Elite, AB Sciex Australia) to evaluate the transmembrane flux of peptides in the apical-to-basolateral direction. Membrane integrity of the Caco-2 cell monolayer was validated using trans-epithelial electrical resistance (TEER) measurements before and after the assays. Atenolol and quinidine were included as negative and positive controls in all assays.

[2] = tested on: Caco-2 cells; experiment: Caco-2 permeability assay (apical to basolateral); type: in vitro ADME, human; parameters: Caco_R1 / Caco_R3: unit not given here
Description: as §1, §2

[3] = in vitro; conditions: PAMPA, PAMPA_Papp_Avg
[4] = PAMPA
[5] = Caco-2, average of 3 replicates, read-out: Caco_Papp_Average

| SMILES | Papp A→B [1, 5] | Caco_R1 ([2]; Caco-2 Papp, replicate 1) | Caco_R3 ([2]; Caco-2 Papp, replicate 3) | Papp [3] | Papp A→B ([1]; Caco-2, Caco_Papp_Average) | Caco_R1 ([2]; Caco-2) | Caco_R3 ([2]; Caco-2) | PAMPA_R1 [4] | PAMPA_R3 [4] | PAMPA_Papp_Avg [4] | Papp ([1]; Caco-2) |
| --- | --- | --- | --- | --- | --- | --- | --- | --- | --- | --- | --- |
| CC[C@@H](C)[C@H]1NC(=O)[C@H](CC(C)C)NC(=O)[C@@H](CC(C)C)NC(=O)[C@H](C(C)C)NC(=O)[C@@H](Cc2ccccc2)N(C)C(=O)[C@@H]2CCCN2C(=O)[C@@H](CC(C)C)NC(=O)[C@H](CC(C)C)NC(=O)[C@H]2CCCN2C1=O (single isomer, unassigned) [Design D9.4.p1, LEU DILE DPRO LEU DLEU PRO *DPHE VAL DLEU] | 3.76 ×10⁻⁶ cm/s | 3.39 | 6 |  |  |  |  |  |  |  |  |
| CC[C@H](C)[C@@H]1NC(=O)[C@H](Cc2ccccc2)N(C)C(=O)[C@H](CC(C)C)N(C)C(=O)[C@@H](C(C)C)NC(=O)[C@@H](C)NC(=O)[C@@H]2CCCN2C(=O)[C@@H](CC(C)C)NC(=O)[C@@H]2CCCN2C(=O)[C@H](C)NC1=O (single isomer, unassigned) [Design D9.6.p1] | 4.51 ×10⁻⁶ cm/s | 4.759 | 4.47 |  |  |  |  |  |  |  |  |
| CC[C@H](C)[C@@H]1NC(=O)[C@@H](CC(C)C)NC(=O)[C@H](CC(C)C)N(C)C(=O)[C@H](Cc2ccccc2)NC(=O)CN(C)C(=O)[C@@H]2CCCN2C(=O)[C@H](C(C)C)NC(=O)[C@H](Cc2ccccc2)N(C)C(=O)[C@H]2CCCN2C(=O)[C@H](CC(C)C)NC1=O (single isomer, unassigned) [Design D10.1.p1, DLEU ILE LEU DPRO *PHE VAL PRO *GLY PHE *LEU] |  |  |  | 3.92 ×10⁻⁶ cm/s | 8.65 ×10⁻⁶ cm/s | 8.51 | 8.51 | 4.75E-06 | 3.42E-06 |  |  |
| CC[C@H](C)[C@@H]1NC(=O)[C@@H](CC(C)C)NC(=O)[C@H](CC(C)C)N(C)C(=O)[C@H](Cc2ccccc2)NC(=O)CN(C)C(=O)[C@@H]2CCCN2C(=O)[C@H](C(C)C)NC(=O)[C@H](Cc2ccccc2)N(C)C(=O)[C@H]2CCCN2C(=O)[C@H](CC(C)C)NC1=O (single isomer, unassigned) [Design D10.1.p2, DLEU ILE LEU DPRO *PHE VAL PRO *GLY PHE *LEU] | 3.6 ×10⁻⁶ cm/s | 2.58 | 4.01 |  |  |  |  |  |  |  |  |
| CC(C)C[C@@H]1NC(=O)[C@@H]2CCCN2C(=O)[C@@H](Cc2ccccc2)NC(=O)[C@H](C)N(C)C(=O)[C@H](CC(C)C)NC(=O)[C@H](CC(C)C)N(C)C(=O)[C@@H](C)NC(=O)[C@@H](CC(C)C)NC(=O)[C@@H]2CCCN2C(=O)[C@@H](Cc2ccccc2)NC1=O (single isomer, unassigned) [Design D10.2.p1, LEU DPHE PRO DLEU DALA *LEU LEU *ALA DPHE PRO] |  |  |  |  | 9.76 ×10⁻⁶ cm/s | 8.83 | 11.73 | 4.51E-06 | 3.88E-06 | 3.92E-06 |  |
| CC[C@H](C)[C@@H]1NC(=O)[C@@H](C(C)C)NC(=O)[C@@H]2CCCN2C(=O)[C@@H](CC(C)C)N(C)C(=O)[C@@H](C(C)C)NC(=O)[C@H](CC(C)C)N(C)C(=O)[C@H]2CCCN2C(=O)[C@@H](C)NC(=O)[C@H](Cc2ccccc2)N(C)C(=O)[C@H]2CCCN2C1=O (single isomer, unassigned) [Design D10.3.p1, ILE DPRO *PHE DALA DPRO *LEU DVAL *DLEU PRO DVAL] |  |  |  | 2.52 ×10⁻⁶ cm/s | 3.15 ×10⁻⁶ cm/s | 1.3 | 6.15 | 3.04E-06 | 1.85E-06 |  |  |
| CC[C@H](C)[C@@H]1NC(=O)[C@@H](C(C)C)NC(=O)[C@@H]2CCCN2C(=O)[C@@H](CC(C)C)N(C)C(=O)[C@@H](C(C)C)NC(=O)[C@H](CC(C)C)N(C)C(=O)[C@H]2CCCN2C(=O)[C@@H](C)NC(=O)[C@H](Cc2ccccc2)N(C)C(=O)[C@H]2CCCN2C1=O (single isomer, unassigned) [Design D10.3.p2, ILE DPRO *PHE DALA DPRO *LEU DVAL *DLEU PRO DVAL] | 4.43 ×10⁻⁶ cm/s | 4.05 | 2.63 |  |  |  |  |  |  |  |  |
| CC(C)C[C@@H]1C(=O)N(C)[C@@H](CC(C)C)C(=O)N2CCC[C@@H]2C(=O)N[C@H](CC(C)C)C(=O)N[C@H](C)C(=O)N2CCC[C@@H]2C(=O)N2CCC[C@H]2C(=O)N[C@@H](C)C(=O)N[C@H](Cc2ccccc2)C(=O)N[C@H](CC(C)C)C(=O)N[C@@H](C(C)C)C(=O)N1C (single isomer, unassigned) [Design D11.9.p2, VAL *DLEU *LEU DPRO DLEU DALA DPRO PRO ALA DPHE DLEU] |  |  |  |  | 4.03 ×10⁻⁶ cm/s | 2.62 | 4.02 | BQL | BQL | BQL |  |
| CC(C)C[C@@H]1NC(=O)[C@@H](CC(C)C)NC(=O)[C@H]2CCCN2C(=O)[C@H](CC(C)C)NC(=O)[C@@H](CC(C)C)NC(=O)[C@H](CC(C)C)NC(=O)[C@@H]2CCCN2C(=O)[C@@H](C)NC1=O [Design D8.1, DLEU LEU DPRO DLEU LEU DALA PRO LEU] (cyclo(L[dA]PL[dL]L[dP][dL])) |  |  |  | 6.94 ×10⁻⁶ cm/s | 23.3 ×10⁻⁶ cm/s | 27.58 | 23.71 | 7.08E-06 | 6.42E-06 |  | 23.3 ×10⁻⁶ cm/s |
| CC[C@@H](C)[C@H]1NC(=O)[C@@H](CC(C)C)NC(=O)C(C)(C)NC(=O)[C@@H]2CCCN2C(=O)[C@@H]([C@H](C)CC)NC(=O)[C@@H](CC(C)C)NC(=O)C(C)(C)NC(=O)[C@@H]2CCCN2C1=O [Design D8.2, PRO AIB DLEU DILE PRO AIB DLEU DILE] (cyclo([Aib][dL][dI]P[Aib][dL][dI]P)) |  |  |  | 7.49 ×10⁻⁶ cm/s | 11.7 ×10⁻⁶ cm/s | 8.98 | 13.19 | 7.36E-06 | 1.04E-05 |  |  |
| CC[C@@H](C)[C@H]1NC(=O)[C@@H](CC(C)C)NC(=O)[C@@H](CC(C)C)N(C)C(=O)[C@@H]2CCCN2C(=O)[C@@H](C(C)C)NC(=O)[C@@H](CC(C)C)NC(=O)[C@@H](CC(C)C)N(C)C(=O)[C@@H]2CCCN2C1=O [Design D8.3.p2, DLEU DVAL PRO *DLEU DLEU DILE PRO *DLEU] (cyclo(P[dNMeL][dL][dI]P[dNMeL][dL][dV])) |  |  |  |  | 2.73 ×10⁻⁶ cm/s | 4.06 | 1.54 | BQL | BQL | BQL |  |
| CC(C)C[C@@H]1NC(=O)[C@H](Cc2ccccc2)NC(=O)[C@@H](CC(C)C)NC(=O)[C@H]2CCCN2C(=O)[C@H](C(C)C)NC(=O)[C@@H](CC(C)C)NC(=O)[C@H]2CCCN2C(=O)[C@@H]2CCCN2C1=O [Design D8.5.p2, PHE LEU PRO DPRO DLEU VAL DPRO DLEU] (cyclo(FLP[dP][dL]V[dP][dL])) |  |  |  | 5.8 ×10⁻⁶ cm/s | 21.4 ×10⁻⁶ cm/s | 17.839 | 20.36 | 5.46E-06 | 5.67E-06 |  |  |
| CC(C)C[C@@H]1NC(=O)[C@H]2CCCN2C(=O)[C@@H]2CCCN2C(=O)[C@H](CC(C)C)NC(=O)[C@@H](CC(C)C)NC(=O)[C@@H](C)N(C)C(=O)[C@@H](C)N(C)C(=O)[C@@H](C(C)C)NC1=O [Design D8.6, LEU PRO DPRO LEU DVAL *DALA *DALA DLEU] (cyclo(LP[dP]L[dV][dNMeA][dNMeA][dL])) |  |  |  | 3.35 ×10⁻⁶ cm/s | 0.737 ×10⁻⁶ cm/s | 0.86 | 0.45 | 3.54E-06 | 3.44E-06 |  |  |
| CC[C@@H](C)[C@H]1NC(=O)[C@@H](CC(C)C)N(C)C(=O)[C@@H]2CCCN2C(=O)[C@@H]([C@H](C)CC)NC(=O)[C@@H](CC(C)C)NC(=O)[C@@H](CC(C)C)N(C)C(=O)[C@@H]2CCCN2C(=O)[C@@H](C(C)C)NC1=O [Design D8.8, PRO *DLEU DLEU DILE PRO *DLEU DILE DVAL] (cyclo(P[dNMeL][dI][dV]P[dNMeL][dL][dI])) |  |  |  | 5.9 ×10⁻⁶ cm/s | 23 ×10⁻⁶ cm/s | 20.91 | 24.11 | 9.54E-06 | 3.47E-06 |  |  |
| CC(C)C[C@@H]1NC(=O)[C@@H](C(C)C)NC(=O)[C@H](Cc2ccccc2)N(C)C(=O)[C@H]2CCCN2C(=O)[C@H]2CCCN2C(=O)[C@@H](C)NC(=O)[C@H](Cc2ccccc2)N(C)C(=O)[C@H]2CCCN2C(=O)[C@@H](C(C)C)NC(=O)[C@@H]2CCCN2C1=O [Design D10.4, *PHE DVAL LEU PRO DVAL DPRO *PHE DALA DPRO DPRO] (cyclo(LP[dV][dP][NMeF][dA][dP][dP][NMeF][dV])) | 0.627 ×10⁻⁶ cm/s | 1.39 | 0.49 |  |  |  |  |  |  |  |  |
| CC(C)C[C@H]1C(=O)N2CCC[C@@H]2C(=O)N(C)[C@@H](C(C)C)C(=O)N[C@@H](C(C)C)C(=O)N2CCC[C@H]2C(=O)N2CCC[C@@H]2C(=O)N[C@@H](C)C(=O)N[C@H](C(C)C)C(=O)N(C)[C@@H](CC(C)C)C(=O)N[C@@H](C)C(=O)N1C [Design D10.5, PRO DPRO ALA DVAL *LEU ALA *LEU DPRO *VAL VAL] (cyclo(A[NMeL][dP][NMeV]VP[dP]A[dV][NMeL])) | 0.497 ×10⁻⁶ cm/s | 1.31 | 0.08 |  |  |  |  |  |  |  |  |
